Test results taken from patent US20170247458A1, “Safety for Treating Cancers with a Glycosylated Chimeric Antibody to EGFR” (Sorrento Therapeutics, Inc., priority 2016, published 2017).

Assays:
[1] = system: EGFR positive, metastatic colorectal cancer; assay: Phase 2/3 study, radiologic response and survival
[2] = human, in vivo
[3] = Phase 2/3 study, safety evaluation and adverse events; details: Table 7

## CCc1c2c(nc3ccc(OC(=O)N4CCC(N5CCCCC5)CC4)cc13)-c1cc3c(c(=O)n1C2)COC(=O)[C@]3(O)CC [Irinotecan monotherapy, irinotecan]
[1]; Ph2/3 trial
  Complete response, number of patients: 1
  Complete response, rate in parentheses: 0.6
  Partial response, number of patients: 20
  Partial response, rate in parentheses: 12.2
  Progressive disease, number of patients: 44
  Progressive disease, rate in parentheses: 26.8
  Stable disease, number of patients: 86
  Stable disease, rate in parentheses: 52.4
  Time to disease progression: 4.1 months
  Unable to evaluate, number of patients: 13
  Unable to evaluate, rate in parentheses: 7.9
[1]; sum of CR and PR
  Overall response rate, number of patients: 21
[1]; sum of CR and PR, interval in brackets not copied
  Overall response rate, rate in parentheses: 12.8
[1]; sum of CR, PR and SD
  Disease control rate, number of patients: 107
[1]; sum of CR, PR and SD, interval in brackets not copied
  Disease control rate, rate in parentheses: 65.2
[2]
  At least one ADR, number of patients: 126
  At least one ADR, share of patients: 74.1%
  At least one AE which lead to stop drug treatment, number of patients: 27
  At least one AE which lead to stop drug treatment, share of patients: 15.9%
  At least one AE, number of patients: 148
  At least one AE, share of patients: 87.1%
  At least one Level □ or above ADR, number of patients: 10
  At least one Level □ or above ADR, share of patients: 5.9%
  At least one Level □ or above AE, number of patients: 12
  At least one Level □ or above AE, share of patients: 7.1%
  At least one Level □ or above important AE, number of patients: 11
  At least one Level □ or above important AE, share of patients: 6.5%
  At least one SAE, number of patients: 8
  At least one SAE, share of patients: 4.7%
  At least one important AE, number of patients: 120
  At least one important AE, share of patients: 70.6%
  At least one test drug-related SAE, number of patients: 1
  At least one test drug-related SAE, share of patients: 0.6%
  Grade 3-4 Abdominal pain, number: 0
  Grade 3-4 Acne-like rash, number: 0
  Grade 3-4 Anemia, number: 3
  Grade 3-4 Anemia, value in parentheses: (1.8)
  Grade 3-4 Asthenia, number: 6
  Grade 3-4 Asthenia, value in parentheses: (3.7)
  Grade 3-4 Diarrhea, number: 12
  Grade 3-4 Diarrhea, value in parentheses: (7.3)
  Grade 3-4 Fever, number: 1
  Grade 3-4 Fever, value in parentheses: (0.9)
  Grade 3-4 Nausea and vomiting, number: 16
  Grade 3-4 Nausea and vomiting, value in parentheses: (9.8)
  Grade 3-4 Neutropenia, number: 14
  Grade 3-4 Neutropenia, value in parentheses: (8.5)
  Grade 3-4 Stomatitis, number: 0
  Grade 3-4 Thrombocytopenia, number: 0
  Grade 3-4 adverse events, Any, number: 57
[3]
  Test drug-related death AE, number of patients: 0
